# Reference: US20240299698A1, “PREVENTION AND TREATMENT OF POST-OPERATIVE COGNITIVE DYSFUNCTION (POCD)” (Noetix Pharma LLC, priority 2022, published 2024)
# Assays:
# mouse model of (POCD) [1] = assay: Morris water maze testing and probe trial in laparotomy mouse model of POCD; type: in vivo, Male C57BI/6 mice; settings: PSD7
# Description: (§1) To induce POCD, mice were anesthetized with isoflurane and maintained at a surgical plane of anesthesia (2-2.5%). The abdomen was shaved and cleaned/disinfected with both betadine and ethanol (70%). A 1.5 cm vertical incision was made along the midline of the abdomen, perforating the skin and the peritoneal cavity. A sterile blunt probe was inserted into the cavity, and the abdominal viscera and musculature were manipulated for five minutes. Abdominal muscles and skin were sutured, polysporin and topical lidocaine were applied to the incision site, and buprenorphine (0.1 mg/kg s.c.) was administered. Animals were placed into a clean, pre-warmed home cage for recovery and housed singly thereafter.
# Morris water maze testing is a well-established method for evaluating spatial learning and memory. To navigate this maze, the mouse must use extra-maze cues to locate a hidden platform and escape from the water. Testing was performed on PSD7. Mice were given two blocks of four 60 sec trials to find the hidden platform, with latency to reach the platform compared between blocks as a measure of learning/memory processes. Swim speed was evaluated to assess locomotor capabilities. On PSD8 (i.e., 24 hours later), mice were reintroduced into the maze without the platform present for a one-minute probe trial to assess reference memory.
# The testing protocol was as follows: 1. The animal was brought into the testing room in a transfer cage. 2. Video recording was begun and the animal's ID card recorded. 3. The mouse was gently placed (i.e., not dropped) into the water at the appropriate start location (N, S, E, or W) facing the pool wall. 4. For 60 seconds, the mouse was allowed to locate and climb onto the submerged platform. If the mouse was unable to locate the platform within the allotted time, it was gently guided there and assigned a score of 61 seconds. 5. The mouse was allowed 60 seconds to recover on the platform and observe the extra-maze cues. If the moused jumped into the water, it was immediately retrieved and placed back on the platform for the remaining duration of the inter-trial interval. 6. Steps 3-5 were repeated for a total of 4 trials (Block 1). 7. The mouse was returned to the transfer cage lined with a dry towel. It was allowed 5 minutes to rest. 8 Steps 3-5 were repeated for a total of 4 trials (Block 2). 9. The mouse was gently dried and returned to its home cage.
# The probe session was conducted as follows: 1. The animal was brought into the testing room in a transfer cage. 2. Video recording was begun and the animal's ID card recorded. 3. The mouse was gently placed (i.e., not dropped) into the water at the appropriate start location (N, S, E, or W) facing the pool wall. 4. The mouse was allowed to swim freely for 60 seconds. 5. The mouse was gently dried and returned to its home cage.
# mouse model of (POCD) [2] = assay: Novel object recognition testing in laparotomy mouse model of POCD; type: in vivo, Male C57BI/6 mice; settings: for novel object preference, 24-hour (long term) testing: PSD6
# Description: as §1
# Novel object recognition (NOR) is a tool used to assess the ability of mice to differentiate between familiar and novel objects (i.e., recognition memory). The paradigm relies on the tendency of rodents to interact more with a novel object than a familiar one. In this task, acclimation to the test arena was provided on the day prior to training (PSD4) and the initial test trial (short-term recall), presented one hour following training on PSD5. The second test trial (long-term recall) was performed 24 hours later (PSD6). Object recognition may be determined through evaluation of the percent time spent exploring a novel object relative to the total time spent exploring both novel and familiar objects; normal animals will spend more time exploring a novel object. If the exploration of both objects is the same, this behavior can be a sign of a recognition memory deficit.
# (§2) The acclimation process was as follows: 1. The animal was brought into the testing room in a transfer cage. 2. Video recording was begun and the animal's ID card was recorded. 3. The mouse was placed in the center of the arena and allowed to explore freely for 5 minutes. 4. The mouse was returned to its home cage.
# as §2, with “paired object training” for “acclimation”, “10” for “5”
# (§3) The novel object (1 hour) test was performed as follows: 1. The arena was prepared with one original object (block) and one novel object (ball) present. 2. The animal was brought into the testing room in a transfer cage. 3. Video recording was begun and the animal's ID card was recorded. 4. The mouse was placed in the center of the arena and allowed to explore for 10 minutes. 5. The mouse was returned to its home cage.
# as §3, with “(24” for “(1”, “(dome)” for “(ball)”
compound,measurement,setting,value
"Cc1ccc(=O)n(-c2ccccc2)c1 [pirfenidone, 5-methyl-1-phenyl-2-(1H)-pyridone]","latency to platform, overall (block x treatment)","mouse model of (POCD) [1]; Acute vs Disease Controls, p=0.028",statistically significant decrease in latency to platform
same,"latency to platform, Block 1","mouse model of (POCD) [1]; Acute vs Disease Controls, p=0.04, Tukey's HSD",found the platform faster than Disease Controls only
same,decrease in time to platform between blocks (spatial memory),"mouse model of (POCD) [1]; Acute, p=0.61, paired t-test",not seen
same,"latency to platform, Block 1","mouse model of (POCD) [1]; Chronic compared to both Disease and Normal Controls, p=0.02 and p=0.03, Tukey's HSD",statistically significant decrease in latency to platform
same,"latency to platform, overall (block x treatment)","mouse model of (POCD) [1]; Chronic vs Disease Controls, p=0.052",statistically significant decrease in latency to platform
same,decrease in time to platform between blocks (spatial memory),"mouse model of (POCD) [1]; Chronic, p=0.54, paired t-test",not seen
same,"latency to platform, Block 2, between groups","mouse model of (POCD) [1]; all groups, p=0.117, one-way ANOVA",no between groups main effect
same,"preference index, within-group 1-hour vs 24-hour","mouse model of (POCD) [2]; Acute, p=0.762, paired t-test (statistically equivalent)",retained memory for the familiar object
same,"preference index, within-group 1-hour vs 24-hour","mouse model of (POCD) [2]; Chronic, p=0.828, paired t-test (statistically equivalent)",retained memory for the familiar object
same,"total object exploration time, 1 hour test compared with training","mouse model of (POCD) [2]; PSD5, Acute, p=0.01, within group paired t-test",decrease in total time spent interacting with objects
same,"total object exploration time, 1 hour test compared with training","mouse model of (POCD) [2]; PSD5, Chronic, p=0.04, within group paired t-test",decrease in total time spent interacting with objects
same,"novel object preference, 1-hour (short term) testing, between groups","mouse model of (POCD) [2]; PSD5, all treatment groups, p=0.376, one-way ANOVA",no main effect for treatment
same,"novel object preference, 24-hour (long term) testing","mouse model of (POCD) [2]; Acute vs Disease Controls, p=0.08, LSD post-hoc",trend toward increased preference
same,"novel object preference, 24-hour (long term) testing","mouse model of (POCD) [2]; Chronic vs Disease Controls, p=0.09, LSD post-hoc",trend toward increased preference
